The record followed here is DBAASP.

What all share (assay): ≥ marks a high value that may be exact or a test limit, other limits are often not marked, values filed in µg/mL are converted to µM
For assay [1], the system named is Pseudomonas aeruginosa PAO1.
Assay [2] has as its system Streptococcus pyogenes M1T1 5448.
Assay [3] deals with Escherichia coli BL21.
Assay [4] has as its system Escherichia coli UB1005.
In assay [5] the test system is Salmonella enterica subsp. enterica serovar Typhimurium ATCC 14028s.
Assay [6] has as its system Pseudomonas aeruginosa H744.
Assay [7] deals with Pseudomonas aeruginosa K799.
Assay [8] deals with Pseudomonas aeruginosa H547.
Assay [9] relates to Pseudomonas aeruginosa Z61.
Assay [10] has as its system Staphylococcus aureus ATCC 29213.
Assay [11] deals with Staphylococcus aureus ATCC 43300.
Assay [12] concerns Salmonella enterica subsp. enterica serovar Enteritidis.
Assay [13] concerns Pseudomonas aeruginosa ATCC 27853.
Assay [14] relates to Escherichia coli ATCC 25922.
For assay [15], the system named is Escherichia coli.
The test system of assay [16] is Yersinia enterocolitica.
Assay [17] deals with Salmonella sp.
In assay [18] the test system is Pseudomonas aeruginosa 9.
Assay [19] deals with Enterobacter cloacae 218R.
In assay [20] the test system is Escherichia coli ESBL 64771.
Assay [21] relates to Pseudomonas aeruginosa 213.
The test system of assay [22] is Enterococcus faecalis ATCC 29212.
Assay [23] has as its system Pseudomonas aeruginosa PAO1 H103.
Assay [24] deals with Staphylococcus aureus C623.
Assay [25] relates to Pseudomonas aeruginosa 198.
Assay [26] concerns Escherichia coli ESBL 63103.
Assay [27] relates to Stenotrophomonas maltophilia ATCC 13637.
The subject of assay [28] is Klebsiella pneumoniae ESBL 63575.
For assay [29], the system named is Enterococcus faecalis W61950.
The test system of assay [30] is Klebsiella pneumoniae ESBL 61962.
In assay [31] the test system is Pseudomonas aeruginosa H1030.
Assay [32] has as its system Enterococcus faecalis f43559.
In assay [33] the test system is Enterococcus faecium mic80.
Assay [34] has as its system Pseudomonas aeruginosa H1027.
Assay [35] concerns Enterococcus faecium t62764.
In assay [36] the test system is Staphylococcus aureus ATCC 25923.
Assay [37] has as its system Pseudomonas aeruginosa LES400.
The test system of assay [38] is Candida albicans ATCC 10231.
Assay [39] has as its system Cryptococcus neoformans ATCC 32264.
Assay [40] has as its system Staphylococcus aureus USA 300.

In brackets after ≈: the same amount, converted by molar mass.

For the compound `CC[C@H](C)[C@H](NC(=O)[C@H](CCCN=C(N)N)NC(=O)CNC(=O)[C@@H](NC(=O)[C@H](CCCCN)NC(=O)[C@H](CCCN=C(N)N)NC(=O)[C@@H](NC(=O)[C@H](Cc1ccc(O)cc1)NC(=O)[C@H](CCCN=C(N)N)NC(=O)[C@H](CCCN=C(N)N)NC(=O)[C@H](CC(C)C)NC(=O)[C@H](CCC(=O)O)NC(=O)[C@H](CCCCN)NC(=O)[C@H](C)NC(=O)[C@@H](NC(=O)[C@H](CCCN=C(N)N)NC(=O)[C@H](CC(N)=O)NC(=O)[C@@H](NC(=O)CNC(=O)[C@H](C)N)[C@@H](C)O)[C@@H](C)CC)[C@@H](C)CC)C(C)C)C(=O)N[C@@H](C)C(=O)N[C@@H](CCCN=C(N)N)C(=O)N[C@@H](CCCCN)C(=O)N[C@@H](CCCCN)C(=O)N[C@@H](Cc1c[nH]c2ccccc12)C(=O)O` [AGTNRIAKELRRYIRKVGRIARKKW], the MIC in [1] is 16 µM (≈ 48.7 µg/mL); in assay [2], 1 µM (≈ 3.04 µg/mL); in assay [3], 1 µM (≈ 3.04 µg/mL).

As for `CC(C)C[C@H](NC(=O)[C@H](C)NC(=O)[C@H](CC(N)=O)NC(=O)[C@@H]1CCCN1C(=O)CNC(=O)[C@H](CO)NC(=O)[C@H](CC(N)=O)NC(=O)[C@@H](NC(=O)[C@H](C)NC(=O)[C@H](CCCCN)NC(=O)[C@H](CCC(N)=O)NC(=O)[C@H](C)NC(=O)[C@H](CCCCN)NC(=O)[C@H](Cc1c[nH]c2ccccc12)NC(=O)[C@H](Cc1c[nH]c2ccccc12)NC(=O)[C@H](CCCCN)NC(=O)[C@@H](N)CCCCN)C(C)C)C(=O)N[C@@H](CCC(N)=O)C(=O)N[C@H](C(=O)N[C@@H](CC(C)C)C(=O)N[C@@H](C)C(=O)N[C@@H](CCC(N)=O)C(=O)O)[C@@H](C)O` [KKWWKAQKAVNSGPNALQTLAQ], the minimum inhibitory concentration (MIC) in assay [4], in assay [5], in assay [6], in assay [7], in [8] and in assay [9] was 25.9 µM (≈ 64 µg/mL) in each case.

As for `CC[C@H](C)[C@H](NC(=O)[C@H](CCC(N)=O)NC(=O)[C@@H](N)CCCN=C(N)N)C(=O)N[C@@H](CCCN=C(N)N)C(=O)N[C@@H](Cc1c[nH]c2ccccc12)C(N)=O` [RQIRW], the MIC in assay [10] was above 50 µM; in assay [11], above 50 µM; in [12], at least 50 µM; in assay [13], above 50 µM; in [14], above 50 µM; in assay [15], above 50 µM. For the same compound, the MIC in assay [16] and in assay [17] was at least 50 µM throughout.

Take `CC(C)C[C@H](NC(=O)[C@H](Cc1c[nH]c2ccccc12)NC(=O)[C@H](Cc1c[nH]c2ccccc12)NC(=O)[C@H](CCCCN)NC(=O)[C@H](Cc1c[nH]c2ccccc12)NC(=O)[C@H](CCCN=C(N)N)NC(=O)[C@H](CCCN=C(N)N)NC(=O)[C@H](Cc1c[nH]c2ccccc12)NC(=O)[C@@H](N)CCCN=C(N)N)C(=O)O` [RWRRWKWWL]: the MIC came to 5.5 µM (≈ 8.1 µg/mL) in assay [18]; 2.65 µM (≈ 3.9 µg/mL) in assay [19]; 1.36 µM (≈ 2 µg/mL) in assay [20]; 10.9 µM (≈ 16 µg/mL) in assay [21]; 10.9 µM (≈ 16 µg/mL) in [22]; 1.36 µM (≈ 2 µg/mL) in assay [23]. Besides, the minimum inhibitory concentration (MIC) was 1.36 µM (≈ 2 µg/mL) in assay [24]; 5.5 µM (≈ 8.1 µg/mL) in assay [25]; 2.65 µM (≈ 3.9 µg/mL) in assay [26]; 0.34 µM (≈ 0.5 µg/mL) in assay [27]; 5.02 µM (≈ 7.4 µg/mL) in [28]; at least 42.1 µM in [29]. Also, the MIC in assay [30] was 21 µM (≈ 31 µg/mL); in assay [31], 5.5 µM (≈ 8.1 µg/mL); in assay [32], at least 42.1 µM; in assay [33], 2.65 µM (≈ 3.9 µg/mL); in assay [34], 0.136 µM (≈ 0.2 µg/mL); in assay [35] it was 0.611 µM (≈ 0.9 µg/mL). Also, the values for the minimal inhibitory concentration (MIC) in assay [36] and in [37] were 1.36 µM (≈ 2 µg/mL) and 2.65 µM (≈ 3.9 µg/mL), respectively.

Consider `N=C(N)NCCC[C@H](NC(=O)[C@H](CCCNC(=N)N)NC(=O)[C@H](Cc1c[nH]c2ccccc12)NC(=O)[C@H](Cc1c[nH]c2ccccc12)NC(=O)[C@H](Cc1c[nH]c2ccccc12)NC(=O)[C@H](Cc1c[nH]c2ccccc12)NC(=O)[C@H](Cc1c[nH]c2ccccc12)NC(=O)[C@H](CCCCN)NC(=O)[C@H](Cc1c[nH]c2ccccc12)NC(=O)[C@H](Cc1c[nH]c2ccccc12)NC(=O)[C@@H](N)CCCNC(=N)N)C(=O)N[C@@H](Cc1c[nH]c2ccccc12)C(=O)N[C@@H](CCCCN)C(=O)N[C@@H](Cc1c[nH]c2ccccc12)C(=O)N[C@@H](CCCCN)C(=O)N[C@@H](CCCCN)C(N)=O` [RWWKWWWWWRRWKWKK], for which the minimal inhibitory concentration (MIC) in [10] is above 50 µM; in assay [38] it was 100 µM (≈ 267 µg/mL); in assay [11], above 50 µM; in assay [39], at least 200 µM; in [12] it was 25 µM (≈ 66.9 µg/mL); in assay [13], above 50 µM. The MIC in [14] is above 50 µM; in [15], above 50 µM; in [16] it was at least 50 µM; in assay [17] it was at least 50 µM.

With `CC[C@H](C)[C@H](NC(=O)[C@H](Cc1ccccc1)NC(=O)[C@H](C)NC(=O)[C@H](CCCCN)NC(=O)[C@H](CCCCN)NC(=O)CNC(=O)[C@H](CCCN=C(N)N)NC(=O)[C@H](CCCCN)NC(=O)[C@H](CCCN=C(N)N)NC(=O)[C@H](CC(C)C)NC(=O)[C@H](CCC(=O)O)NC(=O)[C@H](CCC(=O)O)NC(=O)[C@H](CC(C)C)NC(=O)[C@H](CC(C)C)NC(=O)[C@H](Cc1ccc(O)cc1)NC(=O)[C@H](CCCCN)NC(=O)[C@@H](NC(=O)[C@H](CC(C)C)NC(=O)[C@H](C)NC(=O)[C@H](CCC(N)=O)NC(=O)[C@H](CCCN=C(N)N)NC(=O)CNC(=O)[C@@H](N)Cc1c[nH]c2ccccc12)[C@@H](C)O)C(=O)N[C@@H](C)C(=O)N[C@@H](Cc1c[nH]c2ccccc12)C(=O)O` [WGRQALTKYLLEELRKRGKKAFIAW], the MIC in [1] was 64 µM (≈ 196 µg/mL); in assay [2], 2 µM (≈ 6.13 µg/mL); in [3], 16 µM (≈ 49 µg/mL); in [40], at least 128 µM.

A word on the MIC: it is the lowest concentration found to suppress growth. Low values mean a more susceptible organism, high ones a less susceptible organism.
